Square brackets hold non-standard residues; d marks the D form. Peptide text beside a SMILES is read from it. * marks the point of attachment. Tyr(3-I) = N[C@@H](Cc1ccc(O)c(I)c1)C(=O)O; pGlu = O=C1CC[C@@H](C(=O)O)N1; azaGly = NNC(=O)O; tBu = CC(C)(C)*

These results are taken from patent US8962558B2, “Methods for reducing GnRH-positive tumor cell proliferation using the GnRH antagonist IN3” (priority 1997, dated 2015).

In assay [1] the test system is human glioblastoma cell lines U-87MG or U-373MG, Kaposi sarcoma cell lines KSY-1 or KS-SLK, malignant melanoma cell line MV3 or BLM, medulloblastoma cell line …. Description: Proliferation assay on cell cultures (Example 3). It counts as cell-based. The note with it: cell lines of Example 3 treated with the substance. As to the method:
A human cell line, such as the well known human glioblastoma cell lines U-87MG or U-373MG (Pinski et al., supra), or a human cell line such as the well known Kaposi sarcoma cell lines KSY-1 or KS-SLK (Parkash et al., 1996, New England Journal of Medicine, 335, 17, 1261-1269), or a human cell line such as the well known human malignant melanoma cell line MV3 or BLM (Goldbrunner, R. H., et al., 1996, Anticancer Research 16 (6B), 3679-87), or a human medulloblastoma cell line such as the well known cell line Daoy or D283 MED (Stockhammer et al., 1995, J. Neurosurgery, 83, 672-681), or human meningeoma cell cultures (Boyle-Wash, E., et al., 1995, Journal of Endocrinology, 145, 155-161), are cultured as previously described for the above-mentioned cell lines and then treated with a concentration of the GnRH agonist Triptorelin®, GnRH antagonist SB-75 (Cetrorelix®) or GnRH antagonist Ramorelix®. […]
In another embodiment, the above-mentioned cell lines are treated as described by Emons, G., et al., 1993, supra, and Irmer, G., 1995, supra, with a concentration of the GnRH peptide antagonist Ac-D-Nal(2)-D-4-ClPhe-D-Pal-Ser-1-MePal-D-IsopropylLys-Leu-IsopropylLys-Pro-D-AlaNH2 (also known as Ant 135-25; the Mepal portion is known as 1-Methyl-3-[3′-pyridyl]-alanine), Teverelix (also known as Antarelix®), Cetrorelix (also known as Cetrotide®), Abarelix (also known as Plenaxis®), D-63153 (also known as Ozarelix®), acyline, azaline B, antide (also known as Iturelix®), Degarelix (FE200486), Ganirelix, Nal-Glu, Orntide (also known as Ornirelix®), Elagolix, or with antagonist peptidomimetic ((2S)-2-[5-[2-(2-azabicyclo[2,2,2]oct-2-yl)-1,1-dimethyl-2-oxoethyl]-2-(3,5-dimethylphenyl)-1H-indol-3-yl]-N-(2-pyridin-4-ylethyl-)propan-1-amine (also known as “IN3”).
In another embodiment, the cell lines used above were each additionally treated with a second GnRH antagonist, namely one of the GnRH antagonists Cetrorelix®, Ant 135-25, IN3, degarelix, Antarelix®, Antide®, and Ramorelix® or alternatively with one of the GnRH antagonists that have been disclosed in U.S. Pat. Nos. 6,939,88, 6,200,957, 5,296,468, 4,851,385, 7,361,633, 7,288,517, WO/2009/106597 or PCT/EP2009/052326, U.S. Pat. Nos. 5,480,969, 5,198,533, or UK Patent GB 2 246782 B, wherein these additional treatment procedures were carried out in a manner similar to those reported in Emons et al., supra, using SB 75 (Cetrorelix®). […]

Assay [2] concerns malignant gliomas U-87MG and U-373MG. The assay is described as follows: In vivo study with tumor-implanted nude mice (Example 4). The note with it: daily dosages. As to the method: An effect of the treatment of tumor-implanted nude mice (Pinski et al., supra) each with one of the GnRH agonists Buserelin, Triptorelin, Goserelin, and Leuprorelin and each with one of the GnRH antagonists Cetrorelix® (SB-75), Antarelix®, Antide®, and Ramorelix® on the growth of malignant gliomas U-87MG and U-373MG was carried out using daily dosages and controls in nude mice using analysis techniques described for the determination of the efficacy of similar peptides in Pinski et al., supra.

For assay [3], the system named is ovarian carcinoma cell lines. The note with it: 10^−5 M, day 6; cited from earlier work.
For assay [4], the target named is T1, LHRH receptors in BLM melanoma cells (Homo sapiens, UniProt P30968).
T1 construct: endogenous in cells; host or cells: BLM human melanoma cells (membranes)
T1 sequence (P30968 1-328): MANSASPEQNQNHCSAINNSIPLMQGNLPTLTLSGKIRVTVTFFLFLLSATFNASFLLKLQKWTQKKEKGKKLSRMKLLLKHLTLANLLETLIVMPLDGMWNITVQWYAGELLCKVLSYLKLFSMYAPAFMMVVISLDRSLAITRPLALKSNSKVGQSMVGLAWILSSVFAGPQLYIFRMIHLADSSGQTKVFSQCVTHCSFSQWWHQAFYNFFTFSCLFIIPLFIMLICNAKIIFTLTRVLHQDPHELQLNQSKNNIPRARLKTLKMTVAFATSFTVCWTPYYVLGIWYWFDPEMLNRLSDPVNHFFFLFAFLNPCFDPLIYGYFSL
The assay is described as follows: 125I-LHRH-A binding to BLM cell membranes. As to the method: (§1) GnRH receptors in melanoma cells have been analyzed also in terms of binding parameters.
(§2) Binding characteristics were evaluated from displacement curves as described in Materials and Methods.

Assay [5] has as its target T2, LHRH receptors in Me15392 melanoma cells (Homo sapiens, UniProt P30968).
T2 construct: endogenous in cells; host or cells: Me15392 human melanoma cells (membranes)
T2 sequence (P30968 1-328): T1 sequence (P30968 1-328)
The assay is described as follows: 125I-LHRH-A binding to Me15392 cell membranes. As to the method: as §1, §2

Assay [6] addresses T3, LHRH receptors in rat pituitaries (Rattus norvegicus, UniProt P30969).
T3 construct: from tissue; host or cells: rat pituitary
T3 sequence (P30969 1-327): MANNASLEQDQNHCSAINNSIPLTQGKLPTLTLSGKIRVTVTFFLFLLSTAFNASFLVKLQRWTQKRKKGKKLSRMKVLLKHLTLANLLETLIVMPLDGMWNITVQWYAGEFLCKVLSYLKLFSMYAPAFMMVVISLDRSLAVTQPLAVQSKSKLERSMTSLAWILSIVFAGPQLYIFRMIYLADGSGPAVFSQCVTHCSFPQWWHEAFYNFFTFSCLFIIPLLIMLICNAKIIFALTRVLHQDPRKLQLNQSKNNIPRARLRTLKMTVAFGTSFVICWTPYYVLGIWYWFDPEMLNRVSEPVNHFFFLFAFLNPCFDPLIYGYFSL
The assay is described as follows: 125I-LHRH-A binding to rat pituitaries (control). The protocol: as §1, §2

Assay [7] deals with small cell lung carcinoma cell lines NCI-H1688, NCI-H1417, NCI-H1672, NCI-H1836, DMS-79, DM-553, DMS-114, SW-1271, NCI-H2227, NCI-HI1963, SHP-77 and H-69 AR. Description: Proliferation assay on small cell lung carcinoma cell lines (Example 3). The format is cell-based, human. The note with it: small cell lung carcinoma cell lines treated with the substance. As to the method: In another embodiment, the small cell lung carcinoma cell lines NCI-H1688, NCI-H1417, NCI-H1672, NCI-H1836, DMS-79, DM-553, DMS-114, SW-1271, NCI-H2227, NCI-HI1963 and SHP-77 in addition to the multidrug-resistant small cell lung carcinoma cell line H-69 AR, are cultured as described above and then treated as described by Emons, G., et al., 1993, supra, and Irmer, G., 1995, supra, with various concentrations of the GnRH agonists (D-Lys6)-GnRH, Lutrelin, Histrelin, Nafarelin, Azagly-Nafarelin, Deslorelin, Cystorelin, Decapeptyl, Gonadorelin, GnRH, D-Lys(6)-GnRH II, Lamprey GnRH II, (D-Lys6)-Lamprey GnRH, (D-Lys6)-Lamprey GnRH II and Lamprey GnRH III.
In another embodiment, the small cell lung carcinoma cell lines NCI-H1688, NCI-H1417, NCI-H1672, NCI-H1836, DMS-79, DM-553, DMS-114, SW-1271, NCI-H2227, NCI-HI1963 and SHP-77 in addition to the multidrug-resistant small cell lung carcinoma cell line H-69 AR, are cultured as described above for the above-mentioned cell lines, and then treated as described by Emons, G., et al., 1993, supra, and Irmer, G., 1995, supra, with a concentration of the GnRH antagonist Cetrorelix (also known as Cetrotide®) or with a GnRH peptide antagonist Ac-D-Nal(2)-D-4-ClPhe-D-Pal-Ser-1-MePal-D-IsopropylLys-Leu-IsopropylLys-Pro-D-AlaNH2 wherein Mepal is 1-Methyl-3-[3′-pyridyl]-alanine or Ant 135-25 (also known as Ac-D-Nal(2)-D-4-Cl-Phe-D-Pal-Ser-1-MePal-D-IsopropylLys-Leu-IsopropylLys-Pro-D-AlaNH2), Teverelix (also known as Antarelix®), Cetrorelix (also known as Cetrotide®), Abarelix (also known as Plenaxis®), D-63153 (also known as Ozarelix®), acyline, azaline B, antide (also known as Iturelix®), Degarelix (FE200486), Ganirelix, Nal-Glu, Orntide (also known as Ornirelix®) or with antagonist peptidomimetic ((2S)-2-[5-[2-(2-azabicyclo[2,2,2]oct-2-yl)-1,1-dimethyl-2-oxoethyl]-2-(3,5-dimethylphenyl)-1H-indol-3-yl]-N-(2-pyridin-4-ylethyl-)propan-1-amine (also known as “IN3”).

Assay [8] deals with BLM human melanoma cells. Description: Proliferation of BLM human melanoma cells (Example 20). It counts as cell-based. The note with it: 5×10^−5M. An excerpt: The effects of the GnRH agonist (D-Lys6)-GnRH, Gossypol, the combination of D-Lys6-GnRH and racemic Gossypol, and a conjugate of (D-Lys6)-GnRH, and racemic Gossypol alone on the proliferation of BLM human melanoma cells are depicted in FIG. 20 (A), (B) and (C), respectively. Results are expressed as mean cell number per plate±SE. *, p<0.05 vs. control (C).

`CC(C)C[C@H](NC(=O)[C@@H](Cc1c[nH]c2ccccc12)NC(=O)[C@H](Cc1ccc(O)cc1)NC(=O)[C@H](CO)NC(=O)[C@H](Cc1c[nH]c2ccccc12)NC(=O)[C@H](Cc1c[nH]cn1)NC(=O)[C@@H]1CCC(=O)N1)C(=O)N[C@@H](CCCNC(=N)N)C(=O)N1CCC[C@H]1C(=O)NCC(N)=O` [Triptorelin®]: in assay [1], the “anti-proliferative effects in tumor cells” value is “Significant anti-proliferative effects”. Besides, the “growth of malignant gliomas” value in assay [2] is on record as “Significant growth-inhibiting effects”. The inhibition of proliferation in assay [3] is 40%.
Take `CC(C)C[C@H](NC(=O)[C@@H](COC(C)(C)C)NC(=O)[C@H](Cc1ccc(O)c(I)c1)NC(=O)[C@H](CO)NC(=O)[C@H](Cc1c[nH]c2ccccc12)NC(=O)[C@H](Cc1c[nH]cn1)NC(=O)[C@@H]1CCC(=O)N1)C(=O)N[C@@H](CCCNC(=N)N)C(=O)N1CCC[C@H]1C(=O)NNC(N)=O` [^125I-LHRH-A] ([pGlu]HWS[Tyr(3-I)][dS](tBu)LRP[azaGly]-NH2; C-terminus assumed): the “^125I-LHRH-A binding Capacity” value is listed as 150-200 fmoles/mg protein in assay [4], 200-250 fmoles/mg protein in assay [5] and 70-100 fmoles/mg protein in assay [6].
For the compound (D-Lys6)-GnRH, the “anti-proliferative effects in tumor cells” value in assay [1] and in assay [7] was “Significant anti-proliferative effects” each time. In assay [8], the “inhibition of cellular proliferation versus controls” value is given as 39%.
